Target: T1, MAP2K6 (MKK6) S207E T211E (Homo sapiens, UniProt P52564, S207E/T211E)
T1 construct: purchased Thermo Fisher Scientific (Life Technologies) SelectScreen
Assay: SelectScreen LanthaScreen
Assay type: binding
Settings: read-out: % displacement
How it was run: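 Percent values come from Thermo SelectScreen profiling of NU5455, combining activity and binding assays. CSF1R was run in Z'LYTE format at Km app ATP, and CAMK1 in Adapta format with ATP listed at 10.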

T1 sequence (P52564 whole entry S207E/T211E): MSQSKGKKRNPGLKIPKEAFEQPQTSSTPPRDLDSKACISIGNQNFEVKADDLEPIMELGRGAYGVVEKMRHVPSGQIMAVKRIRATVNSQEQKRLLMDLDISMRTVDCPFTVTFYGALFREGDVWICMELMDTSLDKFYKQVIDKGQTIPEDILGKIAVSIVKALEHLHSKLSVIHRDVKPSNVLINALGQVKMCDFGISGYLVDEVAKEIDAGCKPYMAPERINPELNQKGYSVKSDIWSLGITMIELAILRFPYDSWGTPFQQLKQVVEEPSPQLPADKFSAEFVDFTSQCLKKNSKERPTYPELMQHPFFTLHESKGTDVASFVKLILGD

SMILES: CN(C(=O)CN1CCOCC1)c1ccc2sc3c(-c4cccc5c(=O)cc(N6CC7CCC(C6)O7)oc45)cccc3c2c1 [NU5455]
- inhibition at 1 µM: -4.9%
